{"source": "patent US10925831B2", "about": "“Liposomal formulations of platinum-acridine anticancer agents and methods thereof” (Wake Forest University, priority 2017, dated 2021)", "test_system": "A549 xenografts", "assay": "A549 xenograft study", "format": "in vivo, mice", "conditions": "P8-A1 q4dx4 i.v. 0.4 mg/kg; Lipo4*-P8-A1 q4dx11 i.v. 0.4 mg/kg; cisplatin q4dx11 i.p. 4.0 mg/kg; n=8", "method": "FIGS. 10A, 10B, 10C and 10D illustrate evaluation of P8-A1 and its liposomal formulation, Lipo4-P8-A1, in a A549 xenograft model in mice. FIGS. 10 A-B illustrate tumor volumes and mouse weights monitored for Lipo4-P8-A1 and control, administered q4dx4, i.v. @ 0.4 mg/kg, n=10. Tumor growth inhibition is 65% on day 41, P<0.05. Mouse weight loss is 22% on day 41, potentially reversible. No other toxicity symptoms noted. FIGS. 10 C-D illustrate tumor volumes and mouse weights monitored for P8-A1 (q4dx4, i.v. @ 0.4 mg/kg), Lipo4*-P8-A1, (q4dx11, i.v. @ 0.4 mg/kg), cisplatin (q4dx11, i.p. @ 4.0 mg/kg), and control (q4dx11, i.v.). A total of 8 mice per group were treated (n=8). See text for discussion. […]\nA549 Xenograft study. […] Animal weights and tumor volumes were measured and recorded throughout the entire study after the first dose was administered. Tumor volumes were determined using the formula: V (mm^3)=d^2×D/2, where d and D are the shortest and longest dimension of the tumor, respectively, and are reported as the sum of both tumors for each test animal. […] The concentration of Pt in selected tissues was determined by quadrupole inductively-coupled mass spectrometry (ICP-MS) on a Thermo ICP-MS instrument at the Analytic Chemistry Service facility of Research Triangle Institute, Research Triangle Park, N.C. […]"}
{"smiles": "N.N.[Cl][Pt][Cl]", "note": "[Cisplatin, cisplatin]", "values": [{"measurement": "antitumor efficacy, growth inhibition (Study B)", "result": "does not show efficacy"}]}
